Source: EP4722207A1, “OXOISOINDOLINYL-SUBSTITUTED TETRAHYDROPYRIMIDINEDIONE DERIVATIVE AND USE THEREOF” (Gluetacs Therapeutics (Shanghai) Co., Ltd., priority 2023, dated 2024)

Assays:
Assay type in all cases: cell-based
CK1α = target: T1, CK1α (Homo sapiens, UniProt P48729+Q96SW2); experiment: Western-blot assay, substrate protein degradation in hPBMCs: CK1α; settings: for substrate protein remaining % CK1α: 24 hours of compound treatment, 50 nM and 500 nM; for CK1α substrate protein remaining %: compounds at 50 nM and 500 nM, 24 hours
T1 construct: effects of the compounds of the present disclosure on the expression of target proteins in cells; endogenous in cells; host or cells: human PBMCs (hPBMCs)
T1 sequence (P48729 whole entry): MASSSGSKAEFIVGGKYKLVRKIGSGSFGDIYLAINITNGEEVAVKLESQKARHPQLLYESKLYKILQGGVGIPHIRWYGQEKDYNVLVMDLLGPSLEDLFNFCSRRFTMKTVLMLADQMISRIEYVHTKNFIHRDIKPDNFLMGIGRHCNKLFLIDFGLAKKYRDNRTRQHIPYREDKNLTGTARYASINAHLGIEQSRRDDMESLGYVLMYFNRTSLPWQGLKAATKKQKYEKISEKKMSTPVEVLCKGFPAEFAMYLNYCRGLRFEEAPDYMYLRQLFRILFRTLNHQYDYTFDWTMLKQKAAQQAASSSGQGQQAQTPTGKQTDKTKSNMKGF
T1 sequence (Q96SW2 whole entry): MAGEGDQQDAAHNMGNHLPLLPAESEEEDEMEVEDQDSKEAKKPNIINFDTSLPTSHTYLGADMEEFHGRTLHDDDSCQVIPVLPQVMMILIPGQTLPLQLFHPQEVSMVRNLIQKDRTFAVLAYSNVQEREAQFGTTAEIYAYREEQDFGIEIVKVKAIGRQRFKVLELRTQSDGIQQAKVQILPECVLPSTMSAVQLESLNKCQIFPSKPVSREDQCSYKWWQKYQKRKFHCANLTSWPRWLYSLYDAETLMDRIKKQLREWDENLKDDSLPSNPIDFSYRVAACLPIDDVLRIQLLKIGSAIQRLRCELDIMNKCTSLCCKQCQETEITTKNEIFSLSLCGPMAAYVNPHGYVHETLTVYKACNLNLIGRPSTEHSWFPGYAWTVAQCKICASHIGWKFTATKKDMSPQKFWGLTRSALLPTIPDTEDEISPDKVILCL
T1 sequence (Q16531 whole entry partner): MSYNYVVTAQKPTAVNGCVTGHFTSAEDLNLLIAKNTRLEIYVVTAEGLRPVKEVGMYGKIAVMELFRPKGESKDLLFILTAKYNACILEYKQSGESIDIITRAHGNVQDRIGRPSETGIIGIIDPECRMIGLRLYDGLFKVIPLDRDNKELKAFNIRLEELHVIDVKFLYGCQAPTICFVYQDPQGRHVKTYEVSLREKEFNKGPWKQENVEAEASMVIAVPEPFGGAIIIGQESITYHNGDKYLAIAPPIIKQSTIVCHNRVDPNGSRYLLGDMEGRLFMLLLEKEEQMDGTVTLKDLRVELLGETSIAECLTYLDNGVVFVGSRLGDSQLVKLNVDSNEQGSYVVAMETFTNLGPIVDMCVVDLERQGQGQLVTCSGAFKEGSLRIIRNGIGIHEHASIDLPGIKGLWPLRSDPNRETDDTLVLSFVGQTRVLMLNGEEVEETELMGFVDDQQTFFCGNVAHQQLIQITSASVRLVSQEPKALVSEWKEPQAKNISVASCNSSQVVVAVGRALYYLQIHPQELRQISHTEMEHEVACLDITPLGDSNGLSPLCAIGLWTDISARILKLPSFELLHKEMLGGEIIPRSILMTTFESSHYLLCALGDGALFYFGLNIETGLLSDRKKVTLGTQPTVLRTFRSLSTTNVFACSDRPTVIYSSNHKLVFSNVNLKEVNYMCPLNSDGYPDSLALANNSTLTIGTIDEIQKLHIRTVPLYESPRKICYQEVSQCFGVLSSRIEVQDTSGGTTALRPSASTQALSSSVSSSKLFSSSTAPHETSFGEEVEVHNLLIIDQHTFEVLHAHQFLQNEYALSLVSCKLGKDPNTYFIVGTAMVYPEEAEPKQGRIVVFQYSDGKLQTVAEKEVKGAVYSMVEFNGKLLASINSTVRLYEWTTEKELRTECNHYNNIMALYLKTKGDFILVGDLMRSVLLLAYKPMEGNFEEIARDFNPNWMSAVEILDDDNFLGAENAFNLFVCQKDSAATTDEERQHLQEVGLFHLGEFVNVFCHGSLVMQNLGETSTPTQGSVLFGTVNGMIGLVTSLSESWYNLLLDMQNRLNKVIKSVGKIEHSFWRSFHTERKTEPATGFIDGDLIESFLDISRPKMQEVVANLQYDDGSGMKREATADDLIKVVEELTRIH

GSPT1 = target: T2, GSPT1 (Homo sapiens, UniProt P15170+Q96SW2); experiment: Western-blot assay, substrate protein degradation in hPBMCs: GSPT1; settings: for substrate protein remaining % GSPT1: 24 hours of compound treatment, 50 nM and 500 nM; for GSPT1 substrate protein remaining %: compounds at 50 nM and 500 nM, 24 hours
T2 construct: effects of the compounds of the present disclosure on the expression of target proteins in cells; endogenous in cells; host or cells: human PBMCs (hPBMCs)
T2 sequence (P15170 whole entry): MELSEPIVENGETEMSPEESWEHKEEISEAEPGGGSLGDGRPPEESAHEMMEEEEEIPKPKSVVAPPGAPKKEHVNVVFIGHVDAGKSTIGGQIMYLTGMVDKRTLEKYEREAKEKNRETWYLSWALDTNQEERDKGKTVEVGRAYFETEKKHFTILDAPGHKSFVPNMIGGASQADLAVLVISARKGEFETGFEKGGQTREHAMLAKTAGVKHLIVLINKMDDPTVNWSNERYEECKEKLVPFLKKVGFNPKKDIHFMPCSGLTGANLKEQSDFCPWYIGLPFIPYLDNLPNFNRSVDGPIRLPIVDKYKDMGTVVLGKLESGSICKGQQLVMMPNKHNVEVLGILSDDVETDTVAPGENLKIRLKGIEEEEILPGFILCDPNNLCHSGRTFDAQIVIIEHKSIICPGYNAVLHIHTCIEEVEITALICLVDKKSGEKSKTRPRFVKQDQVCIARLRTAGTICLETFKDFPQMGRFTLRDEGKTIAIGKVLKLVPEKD
T2 sequence (Q96SW2 whole entry): as the sequence (Q96SW2 whole entry) above
T2 sequence (Q16531 whole entry partner): as the sequence (Q16531 whole entry partner) above

WEE1 = target: T3, WEE1 (Homo sapiens, UniProt P30291+Q96SW2); experiment: Western-blot assay, substrate protein degradation in hPBMCs: WEE1; settings: for substrate protein remaining % WEE1: 24 hours of compound treatment, 50 nM and 500 nM; for WEE1 substrate protein remaining %: compounds at 50 nM and 500 nM, 24 hours
T3 construct: effects of the compounds of the present disclosure on the expression of target proteins in cells; endogenous in cells; host or cells: human PBMCs (hPBMCs)
T3 sequence (P30291 whole entry): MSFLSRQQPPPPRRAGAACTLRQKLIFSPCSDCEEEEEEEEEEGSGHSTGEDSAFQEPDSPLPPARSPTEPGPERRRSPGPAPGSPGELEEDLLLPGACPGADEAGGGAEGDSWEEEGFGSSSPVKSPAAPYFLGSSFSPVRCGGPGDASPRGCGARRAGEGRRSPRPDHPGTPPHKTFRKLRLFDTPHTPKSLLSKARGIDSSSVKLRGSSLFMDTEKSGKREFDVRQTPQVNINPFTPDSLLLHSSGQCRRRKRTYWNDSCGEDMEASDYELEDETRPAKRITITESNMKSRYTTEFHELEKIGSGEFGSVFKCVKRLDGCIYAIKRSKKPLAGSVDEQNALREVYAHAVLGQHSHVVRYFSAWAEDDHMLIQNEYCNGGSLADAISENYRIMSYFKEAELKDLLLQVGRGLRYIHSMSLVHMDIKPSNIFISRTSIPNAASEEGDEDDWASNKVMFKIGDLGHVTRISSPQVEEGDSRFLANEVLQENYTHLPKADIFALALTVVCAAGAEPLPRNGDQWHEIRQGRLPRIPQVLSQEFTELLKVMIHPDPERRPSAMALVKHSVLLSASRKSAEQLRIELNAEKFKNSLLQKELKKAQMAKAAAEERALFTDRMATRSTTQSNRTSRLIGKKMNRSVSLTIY
T3 sequence (Q96SW2 whole entry): as the sequence (Q96SW2 whole entry) above
T3 sequence (Q16531 whole entry partner): as the sequence (Q16531 whole entry partner) above

IKZF2 = target: T4, IKZF2 (Homo sapiens, UniProt Q96SW2+Q9UKS7); experiment: Western-blot assay, substrate protein degradation in hPBMCs: IKZF2; settings: for substrate protein remaining % IKZF2: 24 hours of compound treatment, 50 nM and 500 nM; for IKZF2 substrate protein remaining %: compounds at 50 nM and 500 nM, 24 hours
T4 construct: effects of the compounds of the present disclosure on the expression of target proteins in cells; endogenous in cells; host or cells: human PBMCs (hPBMCs)
T4 sequence (Q9UKS7 whole entry): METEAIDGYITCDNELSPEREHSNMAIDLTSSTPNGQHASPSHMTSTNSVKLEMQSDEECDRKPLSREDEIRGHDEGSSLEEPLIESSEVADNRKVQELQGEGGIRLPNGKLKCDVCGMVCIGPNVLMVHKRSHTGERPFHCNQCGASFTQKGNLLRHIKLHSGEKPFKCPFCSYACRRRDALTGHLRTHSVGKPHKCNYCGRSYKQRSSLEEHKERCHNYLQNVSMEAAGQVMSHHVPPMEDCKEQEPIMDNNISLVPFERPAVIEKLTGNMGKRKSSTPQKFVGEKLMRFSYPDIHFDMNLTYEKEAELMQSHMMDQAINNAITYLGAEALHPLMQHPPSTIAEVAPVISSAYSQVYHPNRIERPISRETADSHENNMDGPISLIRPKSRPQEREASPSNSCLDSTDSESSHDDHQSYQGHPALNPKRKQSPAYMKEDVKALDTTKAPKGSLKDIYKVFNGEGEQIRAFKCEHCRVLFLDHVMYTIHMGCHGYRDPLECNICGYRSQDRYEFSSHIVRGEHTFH
T4 sequence (Q96SW2 whole entry): as the sequence (Q96SW2 whole entry) above
T4 sequence (Q16531 whole entry partner): as the sequence (Q16531 whole entry partner) above

IKZF3 = target: T5, IKZF3 (Homo sapiens, UniProt Q96SW2+Q9UKT9); experiment: Western-blot assay, substrate protein degradation in hPBMCs: IKZF3; settings: for substrate protein remaining % IKZF3: 24 hours of compound treatment, 50 nM and 500 nM; for IKZF3 substrate protein remaining %: compounds at 50 nM and 500 nM, 24 hours
T5 construct: effects of the compounds of the present disclosure on the expression of target proteins in cells; endogenous in cells; host or cells: human PBMCs (hPBMCs)

IKZF1 = target: T6, IKZF1 (Homo sapiens, UniProt Q13422+Q96SW2); experiment: Western-blot assay, substrate protein degradation in hPBMCs: IKZF1; settings: for substrate protein remaining % IKZF1: 24 hours of compound treatment, 50 nM and 500 nM; for IKZF1 substrate protein remaining %: compounds at 50 nM and 500 nM, 24 hours
T6 construct: effects of the compounds of the present disclosure on the expression of target proteins in cells; endogenous in cells; host or cells: human PBMCs (hPBMCs)
T6 sequence (Q13422 whole entry): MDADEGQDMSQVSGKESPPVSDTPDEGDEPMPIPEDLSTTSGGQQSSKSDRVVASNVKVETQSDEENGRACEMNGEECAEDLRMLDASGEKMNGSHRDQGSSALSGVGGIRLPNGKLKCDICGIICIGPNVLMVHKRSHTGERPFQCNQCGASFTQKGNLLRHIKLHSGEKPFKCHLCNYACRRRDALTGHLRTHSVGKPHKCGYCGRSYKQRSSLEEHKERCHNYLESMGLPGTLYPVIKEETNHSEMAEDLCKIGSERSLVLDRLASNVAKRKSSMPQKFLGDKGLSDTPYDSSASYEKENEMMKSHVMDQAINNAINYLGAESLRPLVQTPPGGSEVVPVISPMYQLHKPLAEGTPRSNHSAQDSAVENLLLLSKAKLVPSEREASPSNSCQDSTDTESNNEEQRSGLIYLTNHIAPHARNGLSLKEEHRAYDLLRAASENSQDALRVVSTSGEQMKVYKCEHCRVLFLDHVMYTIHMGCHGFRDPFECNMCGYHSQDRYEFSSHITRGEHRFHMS
T6 sequence (Q96SW2 whole entry): as the sequence (Q96SW2 whole entry) above
T6 sequence (Q16531 whole entry partner): as the sequence (Q16531 whole entry partner) above

| Compound | substrate protein remaining % CK1α (CK1α) | CK1α substrate protein remaining % (CK1α) | substrate protein remaining % GSPT1 (GSPT1) | GSPT1 substrate protein remaining % (GSPT1) | substrate protein remaining % WEE1 (WEE1) | WEE1 substrate protein remaining % (WEE1) | substrate protein remaining % IKZF2 (IKZF2) | IKZF2 substrate protein remaining % (IKZF2) | substrate protein remaining % IKZF3 (IKZF3) | IKZF3 substrate protein remaining % (IKZF3) | substrate protein remaining % IKZF1 (IKZF1) | IKZF1 substrate protein remaining % (IKZF1) |
| --- | --- | --- | --- | --- | --- | --- | --- | --- | --- | --- | --- | --- |
| O=C1CCN(N2Cc3cc(CN4CCN(c5nccc(Cl)c5Br)CC4)ccc3C2=O)C(=O)N1 [GT-05432, 1-(5-((4-(3-bromo-4-chloropyridin-2-yl)piperazin-1-yl)methyl)-1-oxoisoindolin-2-yl)dihydropyrimidine-2,4(1H,3H)-dione] | B (80%< substrate protein remaining %≤ 100%) | B ("B" is defined as 80%< substrate protein remaining %≤ 100%) | A (0% ≤ substrate protein remaining % ≤ 80%) | B ("B" is defined as 80%< substrate protein remaining %≤ 100%) | A (0% ≤ substrate protein remaining % ≤ 80%) | A ("A" is defined as 0% ≤ substrate protein remaining % ≤ 80%) | B (80%< substrate protein remaining %≤ 100%) | B ("B" is defined as 80%< substrate protein remaining %≤ 100%) | B (80%< substrate protein remaining %≤ 100%) | B ("B" is defined as 80%< substrate protein remaining %≤ 100%) | B (80%< substrate protein remaining %≤ 100%) | B ("B" is defined as 80%< substrate protein remaining %≤ 100%) |
| O=C1CCN(N2Cc3cc(CN4CCN(c5ncc(C(F)(F)F)cc5Cl)CC4)ccc3C2=O)C(=O)N1 [GT-05433, 1-(5-((4-(3-chloro-5-(trifluoromethyl)pyridin-2-yl)piperazin-1-yl)methyl)-1-oxoisoindolin-2-yl)dihydropyrimidine-2,4(1H,3H)-dione] | B (80%< substrate protein remaining %≤ 100%) | B ("B" is defined as 80%< substrate protein remaining %≤ 100%) | A (0% ≤ substrate protein remaining % ≤ 80%) | A ("A" is defined as 0% ≤ substrate protein remaining % ≤ 80%) | A (0% ≤ substrate protein remaining % ≤ 80%) | A ("A" is defined as 0% ≤ substrate protein remaining % ≤ 80%) | A (0% ≤ substrate protein remaining % ≤ 80%) | B ("B" is defined as 80%< substrate protein remaining %≤ 100%) | B (80%< substrate protein remaining %≤ 100%) | B ("B" is defined as 80%< substrate protein remaining %≤ 100%) | B (80%< substrate protein remaining %≤ 100%) | B ("B" is defined as 80%< substrate protein remaining %≤ 100%) |
| O=C1CCN(N2Cc3cc(CN4CCN(c5cccnc5)CC4)ccc3C2=O)C(=O)N1 [GT-05434, 1-(1-oxo-5-((4-(pyridin-3-yl)piperazin-1-yl)methyl)isoindolin-2-yl)dihydropyrimidine-2,4(1H,3H)-dione] | A (0% ≤ substrate protein remaining % ≤ 80%) | B ("B" is defined as 80%< substrate protein remaining %≤ 100%) | A (0% ≤ substrate protein remaining % ≤ 80%) | A ("A" is defined as 0% ≤ substrate protein remaining % ≤ 80%) | A (0% ≤ substrate protein remaining % ≤ 80%) | A ("A" is defined as 0% ≤ substrate protein remaining % ≤ 80%) | A (0% ≤ substrate protein remaining % ≤ 80%) | B ("B" is defined as 80%< substrate protein remaining %≤ 100%) | B (80%< substrate protein remaining %≤ 100%) | B ("B" is defined as 80%< substrate protein remaining %≤ 100%) | B (80%< substrate protein remaining %≤ 100%) | B ("B" is defined as 80%< substrate protein remaining %≤ 100%) |
| O=C1CCN(N2Cc3cc(CN4CCN(c5ccc(Cl)nc5)CC4)ccc3C2=O)C(=O)N1 [GT-05435, 1-(5-((4-(6-chloropyridin-3-yl)piperazin-1-yl)methyl)-1-oxoisoindolin-2-yl)dihydropyrimidine-2,4(1H,3H)-dione] |  | B ("B" is defined as 80%< substrate protein remaining %≤ 100%) |  | A ("A" is defined as 0% ≤ substrate protein remaining % ≤ 80%) |  | A ("A" is defined as 0% ≤ substrate protein remaining % ≤ 80%) |  | B ("B" is defined as 80%< substrate protein remaining %≤ 100%) |  | B ("B" is defined as 80%< substrate protein remaining %≤ 100%) |  | B ("B" is defined as 80%< substrate protein remaining %≤ 100%) |
| O=C1CCN(N2Cc3cc(CN4CCN(c5cncc(Cl)c5Cl)CC4)ccc3C2=O)C(=O)N1 [GT-05436, 1-(5-((4-(4,5-dichloropyridin-3-yl)piperazin-1-yl)methyl)-1-oxoisoindolin-2-yl)dihydropyrimidine-2,4(1H,3H)-dione] | B (80%< substrate protein remaining %≤ 100%) | B ("B" is defined as 80%< substrate protein remaining %≤ 100%) | A (0% ≤ substrate protein remaining % ≤ 80%) | A ("A" is defined as 0% ≤ substrate protein remaining % ≤ 80%) | A (0% ≤ substrate protein remaining % ≤ 80%) | A ("A" is defined as 0% ≤ substrate protein remaining % ≤ 80%) | B (80%< substrate protein remaining %≤ 100%) | B ("B" is defined as 80%< substrate protein remaining %≤ 100%) | B (80%< substrate protein remaining %≤ 100%) | B ("B" is defined as 80%< substrate protein remaining %≤ 100%) | B (80%< substrate protein remaining %≤ 100%) | B ("B" is defined as 80%< substrate protein remaining %≤ 100%) |
| O=C1CCN(N2Cc3cc(CN4CCN(c5ccncc5)CC4)ccc3C2=O)C(=O)N1 [GT-05437, 1-(1-oxo-5-((4-(pyridin-4-yl)piperazin-1-yl)methyl)isoindolin-2-yl)dihydropyrimidine-2,4(1H,3H)-dione] | B (80%< substrate protein remaining %≤ 100%) |  | A (0% ≤ substrate protein remaining % ≤ 80%) |  | B (80%< substrate protein remaining %≤ 100%) |  | B (80%< substrate protein remaining %≤ 100%) |  | B (80%< substrate protein remaining %≤ 100%) |  | B (80%< substrate protein remaining %≤ 100%) |  |
| Cc1cc(N2CCN(Cc3ccc4c(c3)CN(N3CCC(=O)NC3=O)C4=O)CC2)ccn1 [GT-05438, 1-(5-((4-(2-methylpyridin-4-yl)piperazin-1-yl)methyl)-1-oxoisoindolin-2-yl)dihydropyrimidine-2,4(1H,3H)-dione] | A (0% ≤ substrate protein remaining % ≤ 80%) |  | A (0% ≤ substrate protein remaining % ≤ 80%) |  | A (0% ≤ substrate protein remaining % ≤ 80%) |  | B (80%< substrate protein remaining %≤ 100%) |  | A (0% ≤ substrate protein remaining % ≤ 80%) |  | A (0% ≤ substrate protein remaining % ≤ 80%) |  |
| O=C1CCN(N2Cc3cc(CN4CCN(c5ccncc5Br)CC4)ccc3C2=O)C(=O)N1 [GT-05439, 1-(5-((4-(3-bromopyridin-4-yl)piperazin-1-yl)methyl)-1-oxoisoindolin-2-yl)dihydropyrimidine-2,4(1H,3H)-dione] | A (0% ≤ substrate protein remaining % ≤ 80%) | B ("B" is defined as 80%< substrate protein remaining %≤ 100%) | A (0% ≤ substrate protein remaining % ≤ 80%) | B ("B" is defined as 80%< substrate protein remaining %≤ 100%) | A (0% ≤ substrate protein remaining % ≤ 80%) | A ("A" is defined as 0% ≤ substrate protein remaining % ≤ 80%) | B (80%< substrate protein remaining %≤ 100%) | B ("B" is defined as 80%< substrate protein remaining %≤ 100%) | A (0% ≤ substrate protein remaining % ≤ 80%) | B ("B" is defined as 80%< substrate protein remaining %≤ 100%) | B (80%< substrate protein remaining %≤ 100%) | B ("B" is defined as 80%< substrate protein remaining %≤ 100%) |
| O=C1CCN(N2Cc3cc(CN4CCN(c5ccncc5F)CC4)ccc3C2=O)C(=O)N1 [GT-05697, 1-(5-((4-(3-fluoropyridin-4-yl)piperazin-1-yl)methyl)-1-oxoisoindolin-2-yl)dihydropyrimidine-2,4(1H,3H)-dione] |  | B ("B" is defined as 80%< substrate protein remaining %≤ 100%) |  | A ("A" is defined as 0% ≤ substrate protein remaining % ≤ 80%) |  | A ("A" is defined as 0% ≤ substrate protein remaining % ≤ 80%) |  | B ("B" is defined as 80%< substrate protein remaining %≤ 100%) |  | B ("B" is defined as 80%< substrate protein remaining %≤ 100%) |  | B ("B" is defined as 80%< substrate protein remaining %≤ 100%) |
